In the supplement of paper PMC4862054:

What was measured:
Settings in all cases: incubation time: 72 h
BT-474 [1] = experiment: normalised response (% of control), CellTiter-Glo; higher = more viable cells (100 = DMSO, 0 = benzethonium chloride kill control)
Outline: (§1)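 Every value is a normalised signal taken at one concentration of a dilution series. Compound was placed in 384-well plates at 5 concentrations in 10-fold steps over a compound-specific 10,000-fold range, and 20 µl of breast cancer cell suspension was seeded onto it. After 72 h, CellTox Green fluorescence (485/520 nm) was measured first and CellTiter-Glo luminescence second, following 10 min at room temperature. Each plate was scaled to 0.1 % DMSO (100) and a positive kill control (0).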

BT-549 [2] = experiment: as above
Outline: as §1

CAL-120 [3] = experiment: as above
Outline: as §1

CAL-148 [4] = experiment: as above
Outline: as §1

CAL-51 [5] = experiment: as above
Outline: as §1

CAL-85-1 [6] = experiment: as above
Outline: as §1

DU-4475 [7] = experiment: as above
Outline: as §1

HCC1143 [8] = experiment: as above
Outline: as §1

HCC1599 [9] = experiment: as above
Outline: as §1

HCC1937 [10] = experiment: as above
Outline: as §1

HDQ-P1 [11] = experiment: as above
Outline: as §1

Hs578T [12] = experiment: as above
Outline: as §1

MCF-10A = experiment: as above
Outline: as §1

MDA-MB-231 [13] = experiment: as above
Outline: as §1

MDA-MB-436 [14] = experiment: as above
Outline: as §1

MDA-MB-453 [15] = experiment: as above
Outline: as §1

MDA-MB-468 [16] = experiment: as above
Outline: as §1

MFM-223 [17] = experiment: as above
Outline: as §1

SK-BR-3 [18] = experiment: as above
Outline: as §1

BT-474 [19] = experiment: normalised viability (% of control), CellTiter-Blue; higher = more viable cells (100 = DMSO, 0 = benzethonium chloride kill control)
Outline: (§2)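 Breast cancer cell lines were treated for 72 h in 384-well format and measured by CellTiter-Blue fluorescence at 560/590 nm. Results were normalised per plate to vehicle (100) and a positive kill control (0). The entry is normalised viability at a single listed concentration of the series.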

BT-549 [20] = experiment: as above
Outline: as §2

CAL-120 [21] = experiment: as above
Outline: as §2

CAL-148 [22] = experiment: as above
Outline: as §2

CAL-51 [23] = experiment: as above
Outline: as §2

CAL-85-1 [24] = experiment: as above
Outline: as §2

DU-4475 [25] = experiment: as above
Outline: as §2

HCC1143 [26] = experiment: as above
Outline: as §2

HCC1599 [27] = experiment: as above
Outline: as §2

HCC1937 [28] = experiment: as above
Outline: as §2

HDQ-P1 [29] = experiment: as above
Outline: as §2

Hs578T [30] = experiment: as above
Outline: as §2

MDA-MB-231 [31] = experiment: as above
Outline: as §2

MDA-MB-436 [32] = experiment: as above
Outline: as §2

MDA-MB-453 [33] = experiment: as above
Outline: as §2

MDA-MB-468 [34] = experiment: as above
Outline: as §2

MFM-223 [35] = experiment: as above
Outline: as §2

SK-BR-3 [36] = experiment: as above
Outline: as §2

Compound	normalised response (BT-474 [1])	normalised response (BT-549 [2])	normalised response (CAL-120 [3])	normalised response (CAL-148 [4])	normalised response (CAL-51 [5])	normalised response (CAL-85-1 [6])	normalised response (DU-4475 [7])	normalised response (HCC1143 [8])	normalised response (HCC1599 [9])	normalised response (HCC1937 [10])	normalised response (HDQ-P1 [11])	normalised response (Hs578T [12])	normalised response (MCF-10A)	normalised response (MDA-MB-231 [13])	normalised response (MDA-MB-436 [14])	normalised response (MDA-MB-453 [15])	normalised response (MDA-MB-468 [16])	normalised response (MFM-223 [17])	normalised response (SK-BR-3 [18])	normalised viability (BT-474 [19])	normalised viability (BT-549 [20])	normalised viability (CAL-120 [21])	normalised viability (CAL-148 [22])	normalised viability (CAL-51 [23])	normalised viability (CAL-85-1 [24])	normalised viability (DU-4475 [25])	normalised viability (HCC1143 [26])	normalised viability (HCC1599 [27])	normalised viability (HCC1937 [28])	normalised viability (HDQ-P1 [29])	normalised viability (Hs578T [30])	normalised viability (MDA-MB-231 [31])	normalised viability (MDA-MB-436 [32])	normalised viability (MDA-MB-453 [33])	normalised viability (MDA-MB-468 [34])	normalised viability (MFM-223 [35])	normalised viability (SK-BR-3 [36])
COc1ccc(C2=N[C@@H](c3ccc(Cl)cc3)[C@@H](c3ccc(Cl)cc3)N2C(=O)N2CCNC(=O)C2)c(OC(C)C)c1 [Nutlin-3] (1 nM)	99.8%	97.7%	94.6%	115%	84.8%	102%	106%	103%	104%	103%	105%	103%	101%	105%	119%	114%	98.6%	101%	106%	110%	107%	78.7%	104%	96.3%	90.5%	82.5%	89.8%	91.6%	71.5%	89%	95.9%	101%	101%	102%	92.8%	89.4%	95.6%
CN1CCN(c2ccc3nc(-c4c(N)c5c(F)cccc5[nH]c4=O)[nH]c3c2)CC1 [Dovitinib] (1 nM)	99.9%	102%	94.9%	98.2%	106%	100%	96.2%	98.3%	105%	96.3%	96%	103%	89.3%	102%	99.5%	102%	99.6%	95.4%	94.1%	110%	96.2%	78.8%	104%	114%	82%	113%	87.3%	92.6%	92.2%	87.4%	96.5%	84.5%	105%	98.3%	89.2%	80.6%	77.6%
C[C@@H]1C=C2C(=O)O[C@@H]3CC[C@H](C1)[C@]23O [Galiellalactone] (5 nM)	106%	101%	105%	107%	104%	98.1%	97.2%	105%	102%	98%	107%	107%	111%	103%	107%	108%	108%	107%	108%	105%	112%	81.3%	115%	106%	94.9%	104%	98.9%	88.1%	84.3%	120%	109%	93.7%	94.6%	97%	96.7%	102%	94%
C[C@@]1(C(=O)Nc2ccc(F)nc2)CCCN1c1nc(Nc2cc(C3CC3)n[nH]2)c2cccn2n1 (1 nM)	93%	95.9%	87.5%	83.3%	95.1%	93%	95.2%	89%	90.4%	88.7%	91.2%	95.3%	77.6%	94.2%	83.9%	91.9%	93.6%	87.7%	87.3%	99%	88.2%	90.9%	97.1%	99.6%	92.9%	105%	92%	102%	118%	95.4%	104%	115%	122%	98.1%	107%	96.1%	101%
